Results: patent publication US12201640B2, “19-nor C3,3-disubstituted C21-n-pyrazolyl steroids and methods of use thereof” (Sage Therapeutics, Inc., priority 2013, dated 2025)

Key:
[1] = target: [35S]-TBPS binding, rat brain cortical membranes (GABA receptor complex); experiment: Steroid inhibition of [35S]-TBPS binding; settings: 3 nM [35S]-TBPS, 5 μM GABA
Method: Steroid Inhibition of TBPS Binding
[35S]-t-Butylbicyclophosphorothionate (TBPS) binding assays using rat brain cortical membranes in the presence of 5 μM GABA has been described (Gee et al, J. Pharmacol. Exp. Ther. 1987, 241, 346-353; Hawkinson et al, Mol. Pharmacol. 1994, 46, 977-985; Lewin, A. H et al., Mol. Pharmacol. 1989, 35, 189-194).
Briefly, cortices are rapidly removed following decapitation of carbon dioxide-anesthetized Sprague-Dawley rats (200-250 g). The cortices are homogenized in 10 volumes of ice-cold 0.32 M sucrose using a glass/teflon homogenizer and centrifuged at 1500×g for 10 min at 4° C. The resultant supernatants are centrifuged at 10,000×g for 20 min at 4° C. to obtain the P2 pellets. The P2 pellets are resuspended in 200 mM NaCl/50 mM Na-K phosphate pH 7.4 buffer and centrifuged at 10,000×g for 10 min at 4° C. This washing procedure is repeated twice and the pellets are resuspended in 10 volumes of buffer. Aliquots (100 μL) of the membrane suspensions are incubated with 3 nM [^35S]-TBPS and 5 μL aliquots of test drug dissolved in dimethyl sulfoxide (DMSO) (final 0.5%) in the presence of 5 μM GABA. The incubation is brought to a final volume of 1.0 mL with buffer. Nonspecific binding is determined in the presence of 2 μM unlabeled TBPS and ranged from 15 to 25%. Following a 90 min incubation at room temp, the assays are terminated by filtration through glass fiber filters (Schleicher and Schuell No. 32) using a cell harvester (Brandel) and rinsed three times with ice-cold buffer. Filter bound radioactivity is measured by liquid scintillation spectrometry. Non-linear curve fitting of the overall data for each drug averaged for each concentration is done using Prism (GraphPad). […] The concentration of test compound producing 50% inhibition (IC50) of specific binding and the maximal extent of inhibition (Imax) are determined for the individual experiments with the same model used for the overall data and then the means±SEM.s of the individual experiments are calculated.
Various compounds are or can be screened to determine their potential as modulators of [^35S]-TBPS binding in vitro. These assays are or can be performed in accordance with the above discussed procedures.

[2] = target: T1, GABAA receptor α1β2γ2 (Homo sapiens, UniProt P14867+P47870); experiment: Patch clamp electrophysiology, Qpatch in Ltk cells; type: cell-based; settings: 10 μM test article, GABA EC20 2 μM, read-out: GABA (α1β2γ2) Qpatch in Ltk, % efficacy at 10 μM
T1 construct: expressed in transfected cells
Method: Patch Clamp Electrophysiology of Recombinant α1β2γ2 and α4β3δ GABAA Receptors
Cellular electrophysiology is used to measure the pharmacological properties of our GABAA receptor modulators in heterologous cell systems. Each compound is tested for its ability to affect GABA mediated currents at a submaximal agonist dose (GABA EC20=2 μM). LTK cells are stably transfected with the α1β2γ2 subunits of the GABA receptor and CHO cells are transiently transfected with the α4β3δ subunits via the Lipofecatamine method. Cells were passaged at a confluence of about 50-80% and then seeded onto 35 mm sterile culture dishes containing 2 ml culture complete medium without antibiotics or antimycotics. Confluent clusters of cells are electrically coupled (Pritchett et al., Science, 1988, 242, 1306-1308.). Because responses in distant cells are not adequately voltage clamped and because of uncertainties about the extent of coupling (Verdoorn et al., Neuron 1990, 4, 919-928.), cells were cultivated at a density that enables the recording of single cells (without visible connections to other cells).
Whole cell currents were measured with HEKA EPC-10 amplifiers using PatchMaster software or by using the high throughput QPatch platform (Sophion). Bath solution for all experiments contained (in mM): NaCl 137 mM, KCl 4 mM, CaCl2 1.8 mM, MgCl2 1 mM, HEPES 10 mM, D-Glucose 10 mM, pH (NaOH) 7.4. In some cases 0.005% cremophor was also added. Intracellular (pipette) solution contained: KCl 130 mM, MgCl2 1 mM, Mg-ATP 5 mM, HEPES 10 mM, EGTA 5 mM, pH 7.2. During experiments, cells and solutions were maintained at room temperature (19° C.-30° C.). For manual patch clamp recordings, cell culture dishes were placed on the dish holder of the microscope and continuously perfused (1 ml/min) with bath solution. After formation of a Gigaohm seal between the patch electrodes and the cell (pipette resistance range: 2.5 MΩ-6.0 MΩ; seal resistance range: >1 GΩ) the cell membrane across the pipette tip was ruptured to assure electrical access to the cell interior (whole-cell patch-configuration). For experiments using the QPatch system, cells were transferred as suspension to the QPatch system in the bath solution and automated whole cell recordings were performed.
Cells were voltage clamped at a holding potential of −80 mV. For the analysis of test articles, GABA receptors were stimulated by 2 μM GABA after sequential pre-incubation of increasing concentrations of the test article. Pre-incubation duration was 30 s and the duration of the GABA stimulus was 2 s. Test articles were dissolved in DMSO to form stock solutions (10 mM). Test articles were diluted to 0.01, 0.1, 1, and 10 μM in bath solution. All concentrations of test articles were tested on each cell. The relative percentage potentiation was defined as the peak amplitude in response to GABA EC20 in the presence of the test article divided by the peak amplitude in response to GABA EC20 alone, multiplied by 100.

T1 sequence (P14867 28-456): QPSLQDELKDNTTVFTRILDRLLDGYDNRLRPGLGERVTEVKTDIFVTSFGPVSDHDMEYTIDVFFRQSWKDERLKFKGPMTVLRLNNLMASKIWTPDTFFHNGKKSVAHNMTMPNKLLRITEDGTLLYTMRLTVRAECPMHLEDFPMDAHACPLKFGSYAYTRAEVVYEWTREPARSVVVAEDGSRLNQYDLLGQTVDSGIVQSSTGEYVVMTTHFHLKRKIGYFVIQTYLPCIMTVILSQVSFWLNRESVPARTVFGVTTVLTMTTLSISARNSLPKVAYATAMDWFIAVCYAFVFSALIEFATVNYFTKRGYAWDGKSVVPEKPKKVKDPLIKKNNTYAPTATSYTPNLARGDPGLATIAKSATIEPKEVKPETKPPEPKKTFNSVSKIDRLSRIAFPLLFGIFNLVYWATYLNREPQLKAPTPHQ
T1 sequence (P47870 25-512 limits assumed): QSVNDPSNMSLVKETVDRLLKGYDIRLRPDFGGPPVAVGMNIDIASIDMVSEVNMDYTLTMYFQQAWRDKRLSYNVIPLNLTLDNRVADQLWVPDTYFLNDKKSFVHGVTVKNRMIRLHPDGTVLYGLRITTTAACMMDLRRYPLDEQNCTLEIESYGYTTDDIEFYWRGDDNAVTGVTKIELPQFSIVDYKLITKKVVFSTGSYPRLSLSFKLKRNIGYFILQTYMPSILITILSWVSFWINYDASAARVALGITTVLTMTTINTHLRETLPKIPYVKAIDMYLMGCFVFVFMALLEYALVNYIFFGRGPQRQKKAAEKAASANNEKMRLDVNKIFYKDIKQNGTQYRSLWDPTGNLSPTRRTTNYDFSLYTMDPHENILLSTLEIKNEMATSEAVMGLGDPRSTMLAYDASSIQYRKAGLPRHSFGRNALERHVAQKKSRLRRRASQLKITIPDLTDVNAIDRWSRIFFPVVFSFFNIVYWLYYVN
T1 sequence (P18507 40-475 partner): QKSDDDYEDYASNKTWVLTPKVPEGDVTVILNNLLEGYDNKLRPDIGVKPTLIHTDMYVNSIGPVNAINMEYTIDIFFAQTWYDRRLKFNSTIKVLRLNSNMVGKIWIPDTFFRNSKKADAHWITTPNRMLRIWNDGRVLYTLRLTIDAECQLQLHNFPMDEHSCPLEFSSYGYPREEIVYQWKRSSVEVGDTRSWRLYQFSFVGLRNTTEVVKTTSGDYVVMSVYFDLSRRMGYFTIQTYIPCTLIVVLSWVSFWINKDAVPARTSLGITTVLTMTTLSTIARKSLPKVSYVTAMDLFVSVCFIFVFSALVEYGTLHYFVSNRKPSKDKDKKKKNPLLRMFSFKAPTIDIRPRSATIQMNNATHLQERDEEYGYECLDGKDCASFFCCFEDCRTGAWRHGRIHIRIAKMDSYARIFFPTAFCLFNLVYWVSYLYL

Structure (SMILES)	IC50 [1] [nM]	Emax at 10 µM [2] [%]
CCOC(=O)c1cnn(CC(=O)[C@H]2CC[C@H]3[C@@H]4CC[C@@H]5C[C@](C)(O)CC[C@@H]5[C@H]4CC[C@]23C)c1 [SA-3]	< 10	> 500
Cc1cc(C)n(CC(=O)[C@H]2CC[C@H]3[C@@H]4CC[C@@H]5C[C@](C)(O)CC[C@@H]5[C@H]4CC[C@]23C)n1 [SA-12]	10 to 50	100 to 500
C[C@@]1(O)CC[C@H]2[C@H](CC[C@@H]3[C@@H]2CC[C@]2(C)[C@@H](C(=O)Cn4cc(C(F)(F)F)cn4)CC[C@@H]32)C1 [SA-14]	–	100 to 500
Cc1cn(CC(=O)[C@H]2CC[C@H]3[C@@H]4CC[C@@H]5C[C@](C)(O)CC[C@@H]5[C@H]4CC[C@]23C)nc1C [SA-15]	–	100 to 500
CCc1cnn(CC(=O)[C@H]2CC[C@H]3[C@@H]4CC[C@@H]5C[C@](C)(O)CC[C@@H]5[C@H]4CC[C@]23C)c1 [SA-16]	–	> 500
CSc1cnn(CC(=O)[C@H]2CC[C@H]3[C@@H]4CC[C@@H]5C[C@](C)(O)CC[C@@H]5[C@H]4CC[C@]23C)c1 [SA-18]	–	> 500
C[S+]([O-])c1cnn(CC(=O)[C@H]2CC[C@H]3[C@@H]4CC[C@@H]5C[C@](C)(O)CC[C@@H]5[C@H]4CC[C@]23C)c1 (stereo partly drawn) [SA-20]	–	100 to 500
C[C@@]1(O)CC[C@H]2[C@H](CC[C@@H]3[C@@H]2CC[C@]2(C)[C@@H](C(=O)Cn4cc(F)cn4)CC[C@@H]32)C1 [SA-21]	–	> 500
COC[C@@]1(O)CC[C@H]2[C@H](CC[C@@H]3[C@@H]2CC[C@]2(C)[C@@H](C(=O)Cn4cccn4)CC[C@@H]32)C1 [SA-23]	100 to 500	> 500
C[C@@]1(O)CC[C@@H]2[C@H]3CC[C@]4(C)[C@@H](C(=O)Cn5cccn5)CC[C@H]4[C@@H]3C[C@@H](F)[C@@H]2C1 [SA-25]	≥ 500	–
C[C@]12CC[C@H]3[C@@H](CC[C@@H]4C[C@@](O)(C(F)F)CC[C@@H]43)[C@@H]1CC[C@@H]2C(=O)Cn1cccn1 [SA-27]	100 to 500	100 to 500
C[C@]12CC[C@H]3[C@@H](CC[C@@H]4C[C@@](O)(C(F)F)CC[C@@H]43)[C@@H]1CC[C@@H]2C(=O)Cn1cc(C#N)cn1 [SA-28]	–	> 500
C[C@]12CC[C@H]3[C@@H](CC[C@@H]4C[C@@](O)(C(F)F)CC[C@@H]43)[C@@H]1CC[C@@H]2C(=O)Cn1cc(S(C)(=O)=O)cn1 [SA-29]	≥ 500	–
CC[C@@]1(O)CC[C@H]2[C@H](CC[C@@H]3[C@@H]2CC[C@]2(C)[C@@H](C(=O)Cn4cc(C#N)cn4)CC[C@@H]32)C1 [SA-30]	–	100 to 500
C[C@]12CC[C@H]3[C@@H](CC[C@@H]4C[C@@](O)(CF)CC[C@@H]43)[C@@H]1CC[C@@H]2C(=O)Cn1cccn1 [SA-31]	100 to 500	100 to 500
C[C@]12CC[C@H]3[C@@H](CC[C@@H]4C[C@@](O)(CF)CC[C@@H]43)[C@@H]1CC[C@@H]2C(=O)Cn1cc(S(C)(=O)=O)cn1 [SA-33]	≥ 500	–

Structure (SMILES)	IC50 [1] [nM]	Emax at 10 µM [2] [%]
CC[C@@]1(O)CC[C@H]2[C@H](CC[C@@H]3[C@@H]2CC[C@]2(C)[C@@H](C(=O)Cn4cccn4)CC[C@@H]32)C1 [SA-35]	100 to 500	100 to 500
C[C@@]1(O)CC[C@H]2[C@@H](CC[C@@H]3[C@@H]2CC[C@]2(C)[C@@H](C(=O)Cn4cc(S(C)(=O)=O)cn4)CC[C@@H]32)C1 [SB-3]	≥ 500	–
COC[C@@]1(O)CC[C@H]2[C@@H](CC[C@@H]3[C@@H]2CC[C@]2(C)[C@@H](C(=O)Cn4cccn4)CC[C@@H]32)C1 [SB-4]	100 to 500	> 500
COC[C@@]1(O)CC[C@H]2[C@@H](CC[C@@H]3[C@@H]2CC[C@]2(C)[C@@H](C(=O)Cn4cc(S(C)(=O)=O)cn4)CC[C@@H]32)C1 [SB-7]	≥ 500	–
CCOC[C@@]1(O)CC[C@H]2[C@@H](CC[C@@H]3[C@@H]2CC[C@]2(C)[C@@H](C(=O)Cn4cccn4)CC[C@@H]32)C1 [SB-8]	≥ 500	–
CCOC[C@@]1(O)CC[C@H]2[C@@H](CC[C@@H]3[C@@H]2CC[C@]2(C)[C@@H](C(=O)Cn4cc(C#N)cn4)CC[C@@H]32)C1 [SB-9]	–	100 to 500
Cc1cnn(CC(=O)[C@H]2CC[C@H]3[C@@H]4C[C@@H](F)[C@H]5C[C@](C)(O)CC[C@@H]5[C@H]4CC[C@]23C)c1 [SB-12]	–	100 to 500
C[C@@]1(O)CC[C@@H]2[C@H]3CC[C@]4(C)[C@@H](C(=O)Cn5ccc(C#N)n5)CC[C@H]4[C@@H]3C[C@@H](F)[C@H]2C1 [SB-13]	–	100 to 500
CSc1cnn(CC(=O)[C@H]2CC[C@H]3[C@@H]4C[C@@H](F)[C@H]5C[C@](C)(O)CC[C@@H]5[C@H]4CC[C@]23C)c1 [SB-14]	–	100 to 500
C[C@@H]1C[C@H]2[C@@H](CC[C@@H]3[C@@H]2CC[C@]2(C)[C@@H](C(=O)Cn4cccn4)CC[C@@H]32)C[C@]1(C)O [SB-18]	100 to 500	100 to 500
CO[C@H]1C[C@H]2[C@@H](CC[C@@H]3[C@@H]2CC[C@]2(C)[C@@H](C(=O)Cn4cccn4)CC[C@@H]32)C[C@]1(C)O [SB-19]	100 to 500	> 500
CC[C@@]1(O)CC[C@H]2[C@@H](CC[C@@H]3[C@@H]2CC[C@]2(C)[C@@H](C(=O)Cn4cccn4)CC[C@@H]32)C1 [SB-20]	≥ 500	–
CC[C@@]1(O)CC[C@H]2[C@@H](CC[C@@H]3[C@@H]2CC[C@]2(C)[C@@H](C(=O)Cn4cc(C#N)cn4)CC[C@@H]32)C1 [SB-21]	–	100 to 500
C[C@]12CC[C@H]3[C@@H](CC[C@H]4C[C@@](O)(CF)CC[C@@H]43)[C@@H]1CC[C@@H]2C(=O)Cn1cc(C#N)cn1 [SB-22]	100 to 500	> 500
C[C@]12CC[C@H]3[C@@H](CC[C@H]4C[C@@](O)(CF)CC[C@@H]43)[C@@H]1CC[C@@H]2C(=O)Cn1cccn1 [SB-23]	100 to 500	100 to 500
